Positions of bridges follow the written chain, without caps; N, C: chain ends. Residues, ends and D or L forms follow the SMILES beside them.
What was measured:
Type in all cases: cell-based
hERG channel = molecular target: T1, hERG channel (Homo sapiens, UniProt Q12809); settings: 1 μM peptide; whole-cell patch clamp, HEK293T; mean ± S.E., n ≥ 3; SEM
T1 construct: expressed in transfected cells; host or cells: HEK293T
Description: (§1) To investigate the electrophysiological activities of BmK86-P1, the whole-cell patch clamp technique was applied to test the effects of BmK86-P1 on multiple potassium channels. The hKv1.1, hKv1.2, hKv1.3, hKv1.6, hKv3.2, mKv4.1, rKv4.2, rKv4.3 and hERG channels were overexpressed in HEK293T cells, then the inhibitory effects of BmK86-P1 at 1 μM on these potassium channels were measured. […] To further investigate the affinity of BmK86-P1 inhibiting the hKv1.2 channel, a dose-dependent study was performed by examining the inhibitory effects of different concentrations of BmK86-P1.
(§2) All potassium channel expression vectors were given by others or constructed by ourselves. HEK293T cells were cultured in Dulbecco’s modified Eagle medium (Gibco, Pittsburgh, PA, USA) with 10% fetal bovine serum and penicillin/streptomycin (100 units/mL) in a 5% CO2 incubator at 37 °C. […] The potassium currents were recorded after transfection for 1 to 3 days.
(§3) The channel currents were measured and recorded by whole-cell patch clamp technology according to previously published references. […] The channel currents were recorded at room temperature (~25 °C) using an EPC 10 patch clamp amplifier. […]
(§4) The ClampFit (Molecular Devices, Sunnyvale, CA, USA) and SigmaPlot software ([…], Chicago, IL, USA) were used to analyze the recorded data. […]

rKv4.2 channel = molecular target: T2, rKv4.2 channel (Rattus norvegicus, UniProt Q63881); test: Whole-cell patch clamp, rKv4.2 channel overexpressed in HEK293T cells; settings: 1 μM peptide, mean ± S.E., n ≥ 3, SEM
T2 construct: expressed in transfected cells; host or cells: HEK293T
T2 sequence (Q63881 1-630): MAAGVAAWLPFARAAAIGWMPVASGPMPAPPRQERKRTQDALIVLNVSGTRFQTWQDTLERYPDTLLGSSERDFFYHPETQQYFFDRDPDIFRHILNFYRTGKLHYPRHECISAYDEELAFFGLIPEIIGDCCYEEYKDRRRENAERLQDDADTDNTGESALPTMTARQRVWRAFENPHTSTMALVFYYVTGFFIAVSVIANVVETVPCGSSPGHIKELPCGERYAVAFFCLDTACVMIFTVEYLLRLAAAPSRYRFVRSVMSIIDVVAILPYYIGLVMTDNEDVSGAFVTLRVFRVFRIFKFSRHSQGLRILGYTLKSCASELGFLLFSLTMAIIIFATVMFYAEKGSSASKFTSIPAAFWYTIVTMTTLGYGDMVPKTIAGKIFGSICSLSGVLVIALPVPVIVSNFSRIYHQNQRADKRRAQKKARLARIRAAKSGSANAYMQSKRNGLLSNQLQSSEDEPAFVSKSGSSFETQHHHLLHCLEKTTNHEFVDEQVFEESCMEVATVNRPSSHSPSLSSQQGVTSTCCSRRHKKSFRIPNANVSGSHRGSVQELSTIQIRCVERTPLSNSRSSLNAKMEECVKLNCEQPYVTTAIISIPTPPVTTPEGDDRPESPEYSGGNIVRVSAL
Description: as §1, §2, §3, §4

hKv1.2-R354A = molecular target: T3, hKv1.2-R354A (Homo sapiens, UniProt P16389, R354A); test: Whole-cell patch clamp, hKv1.2 channel mutant R354A; settings: 100 nM peptide, HEK293T, mean ± S.E., n ≥ 3, SEM
T3 construct: expressed in transfected cells; host or cells: HEK293T
T3 sequence (P16389 whole entry R354A): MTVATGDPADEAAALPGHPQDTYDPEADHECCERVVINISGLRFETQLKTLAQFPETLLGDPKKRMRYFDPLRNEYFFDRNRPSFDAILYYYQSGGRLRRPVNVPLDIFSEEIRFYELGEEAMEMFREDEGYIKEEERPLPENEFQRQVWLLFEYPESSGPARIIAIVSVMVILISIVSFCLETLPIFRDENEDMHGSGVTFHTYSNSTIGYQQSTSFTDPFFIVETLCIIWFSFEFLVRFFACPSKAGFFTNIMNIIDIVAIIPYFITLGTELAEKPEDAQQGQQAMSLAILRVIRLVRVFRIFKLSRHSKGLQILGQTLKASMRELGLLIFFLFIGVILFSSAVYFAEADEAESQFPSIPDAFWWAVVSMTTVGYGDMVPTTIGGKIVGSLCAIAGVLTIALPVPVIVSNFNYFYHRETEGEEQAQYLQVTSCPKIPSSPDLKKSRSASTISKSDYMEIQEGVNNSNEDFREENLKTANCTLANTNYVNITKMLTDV
Description: (§5) To determine the functional sites of the hKv1.2 channel responsible for the selectivity of BmK86-P1, six hKv1.2 mutants were obtained based on sequence differences between the pore regions of the hKv1.2 and hKv1.1 channels (Figure 4A). Then, the activities of 100 nM BmK86-P1 on these six mutant channels were tested. […] The other three mutant channels (hKv1.2-D352E, hKv1.2-R354A and hKv1.2-P359S) still kept similar sensitivities toward BmK86-P1 compared with the wild-type hKv1.2 channel (Figure 4H,I,K,N).
(§6) All potassium channel expression vectors were given by others or constructed by ourselves. HEK293T cells were cultured in Dulbecco’s modified Eagle medium (Gibco, Pittsburgh, PA, USA) with 10% fetal bovine serum and penicillin/streptomycin (100 units/mL) in a 5% CO2 incubator at 37 °C. Potassium channel expression vectors and pEGFP-N1 were co-transfected into HEK293T cells using TurboFect in vitro Transfection Reagent (Thermo Scientific, Waltham, MA, USA) according to the manufacturer’s instructions. The potassium currents were recorded after transfection for 1 to 3 days.
as §3

hKv1.2-P359S = molecular target: T4, hKv1.2-P359S (Homo sapiens, UniProt P16389, P359S); test: Whole-cell patch clamp, hKv1.2 channel mutant P359S; settings: 100 nM peptide, HEK293T, mean ± S.E., n ≥ 3, SEM
T4 construct: expressed in transfected cells; host or cells: HEK293T
T4 sequence (P16389 whole entry P359S): as the sequence (P16389 whole entry R354A) above, with A354R, P359S counted along it
Description: as §5, §6, §3

hKv1.2-V381Y = molecular target: T5, hKv1.2-V381Y (Homo sapiens, UniProt P16389, V381Y); test: Whole-cell patch clamp, hKv1.2 channel mutant V381Y; settings: 100 nM peptide, HEK293T, mean ± S.E., n ≥ 3, SEM
T5 construct: expressed in transfected cells; host or cells: HEK293T
T5 sequence (P16389 whole entry V381Y): as the sequence (P16389 whole entry R354A) above, with A354R, V381Y counted along it
Description: as §5, §6, §3

hKv1.2-Q357H = molecular target: T6, hKv1.2-Q357H (Homo sapiens, UniProt P16389, Q357H); test: Whole-cell patch clamp, hKv1.2 channel mutant Q357H; settings: 100 nM peptide, HEK293T, mean ± S.E., n ≥ 3, SEM
T6 construct: expressed in transfected cells; host or cells: HEK293T
T6 sequence (P16389 whole entry Q357H): as the sequence (P16389 whole entry R354A) above, with A354R, Q357H counted along it
Description: as §5, §6, §3

T1 sequence (Q12809 whole entry): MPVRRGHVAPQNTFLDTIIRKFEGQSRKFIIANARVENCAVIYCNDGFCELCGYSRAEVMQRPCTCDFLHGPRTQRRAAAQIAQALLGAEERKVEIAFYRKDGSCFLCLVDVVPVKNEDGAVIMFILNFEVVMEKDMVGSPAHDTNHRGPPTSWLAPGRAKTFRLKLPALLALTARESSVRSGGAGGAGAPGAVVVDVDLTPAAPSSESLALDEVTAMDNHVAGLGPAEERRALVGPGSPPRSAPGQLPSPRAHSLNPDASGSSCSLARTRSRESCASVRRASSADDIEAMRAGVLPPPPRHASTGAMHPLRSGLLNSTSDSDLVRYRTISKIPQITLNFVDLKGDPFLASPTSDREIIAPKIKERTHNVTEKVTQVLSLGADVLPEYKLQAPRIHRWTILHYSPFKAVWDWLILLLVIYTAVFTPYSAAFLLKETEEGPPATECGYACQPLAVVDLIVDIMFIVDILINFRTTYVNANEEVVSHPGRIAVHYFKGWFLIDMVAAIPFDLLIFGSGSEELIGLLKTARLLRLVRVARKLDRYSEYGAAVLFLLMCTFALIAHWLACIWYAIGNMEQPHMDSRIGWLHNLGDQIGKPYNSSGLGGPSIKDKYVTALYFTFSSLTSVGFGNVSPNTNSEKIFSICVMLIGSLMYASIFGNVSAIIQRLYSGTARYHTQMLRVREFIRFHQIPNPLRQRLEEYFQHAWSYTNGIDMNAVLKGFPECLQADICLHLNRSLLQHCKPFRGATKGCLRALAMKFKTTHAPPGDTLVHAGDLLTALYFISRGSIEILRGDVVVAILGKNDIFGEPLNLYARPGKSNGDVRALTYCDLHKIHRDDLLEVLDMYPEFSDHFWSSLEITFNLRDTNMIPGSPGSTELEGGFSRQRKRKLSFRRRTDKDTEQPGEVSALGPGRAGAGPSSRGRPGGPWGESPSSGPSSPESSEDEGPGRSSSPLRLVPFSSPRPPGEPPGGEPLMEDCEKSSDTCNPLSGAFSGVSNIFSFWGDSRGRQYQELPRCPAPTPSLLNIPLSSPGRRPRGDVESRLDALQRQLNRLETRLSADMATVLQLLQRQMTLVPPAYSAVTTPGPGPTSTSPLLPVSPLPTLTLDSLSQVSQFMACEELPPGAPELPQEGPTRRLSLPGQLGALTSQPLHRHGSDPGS

**Q.** For `CC[C@H](C)[C@@H]1NC(=O)[C@@H]2CSSC[C@H](NC(=O)[C@H](C)N)C(=O)N[C@@H](CO)C(=O)N[C@@H](CCCCN)C(=O)N3CCC[C@H]3C(=O)N[C@H]3CSSC[C@H](NC(=O)[C@H](CCCNC(=N)N)NC(=O)CNC(=O)[C@H](CC(N)=O)NC1=O)C(=O)N[C@@H](Cc1c[nH]cn1)C(=O)N[C@H](C(=O)N[C@@H](Cc1ccc(O)cc1)C(=O)N[C@@H](Cc1ccc(O)cc1)C(=O)O)CSSC[C@H](NC(=O)[C@H](Cc1ccc(O)cc1)NC(=O)[C@H](CCCCN)NC(=O)[C@H](CCCNC(=N)N)NC3=O)C(=O)N[C@@H]([C@@H](C)CC)C(=O)N[C@@H](CC(=O)O)C(=O)N[C@@H](CCCCN)C(=O)NCC(=O)N[C@@H](C)C(=O)N[C@@H](CCCNC(=N)N)C(=O)N[C@@H](CC(N)=O)C(=O)NCC(=O)N[C@@H](CCCCN)C(=O)N2` [BmK86-P1] (H-ACSKPCRKYCIDKGARNGKCINGRCHCYY-OH; disulfide 2-20, 6-25, 10-27 (inferred); N-terminus and C-terminus assumed), which “inhibition of hERG channel currents” value (hERG channel) is on record?
**A.** 13.3 ± 3.3%

**Q.** What about the “inhibition of rKv4.2 channel currents” value (rKv4.2 channel) of the same molecule?
**A.** 11.0 ± 1.8%

**Q.** What about the “inhibition of hKv1.2-R354A channel currents” value (hKv1.2-R354A) of the same molecule?
**A.** 73.3 ± 1.3%

**Q.** And the “inhibition of hKv1.2-P359S channel currents” value (hKv1.2-P359S)?
**A.** 72.4 ± 5.5%

**Q.** What about the “inhibition of hKv1.2-V381Y channel currents” value (hKv1.2-V381Y) of the same molecule?
**A.** 1.6 ± 0.1%

**Q.** What about the “inhibition of hKv1.2-Q357H channel currents” value (hKv1.2-Q357H) of the same molecule?
**A.** 37.3 ± 1.5%
